Structure (SMILES): CC(C)C[C@H](NC(=O)N1CCOCC1)C(=O)N[C@@H](CCc1ccccc1)C(=O)c1oc(-c2ccccc2)nc1-c1ccccc1 [Example 5, Morpholine-4-carboxylic acid {1-(S)-[1-(S)-(2,4-diphenyloxazole-5-carbonyl)-3-phenylpropylcarbamoyl]-3-methylbutyl} amide]
- melting point: 83 to 85 °C
